Test results reported in the OPERA property sets (Mansouri et al. 2018).

SMILES	logP
NNC(=O)Nc1cccc(C(=O)O)c1	-0.16
Cc1cccc(NC(=O)NN)c1	0.68
NNC(=O)Nc1ccc(Cl)cc1	0.87
NNC(=O)Nc1ccc(C(=O)O)cc1	-0.21
NNC(=O)Nc1ccc([N+](=O)[O-])cc1	-0.18
Cc1ccc(NC(=O)NN)cc1	0.69

Second part, the molecule after the results:

logP	SMILES
-0.49	NNC(=O)Nc1ccccc1C(=O)O
0.17	COc1ccc(NC(=O)NN)cc1
-0.15	COc1ccccc1NC(=O)NN
-0.47	NNC(=O)Nc1ccccc1[N+](=O)[O-]
0.16	NNC(=O)Nc1ccccc1
0.33	NNC(=O)Nc1ccccc1O
